# From patent publication US12528837B2, “Aryl substituted polymyxin derivatives” (priority 2018, dated 2026)
# Like-named read-outs stand apart in the source and are kept apart here. *1 amine or outer side, *2 acyl side, *3 side chain or, on linkers, in order; H or OH if unused. Where a SMILES comes first, the peptide text is derived from it. Bridges are numbered along the chain shown (N, C = ends). [ ]: non-standard residue; d: D form. The star is where a group is joined. GABA(3S-Bn) = O=C(C[C@@H](CN[*:1])Cc1ccccc1)[*:2]; X21 = NC[C@H](CC(=O)*)c1cc(Cl)cc(Cl)c1; X22 = CC(C)Cc1cccc([C@H](CN)CC(=O)*)c1; X3 = CC(C)c1cccc([C@@H](CN)CC(=O)*)c1; X9 = CC(C)c1cccc([C@H](CN)CC(=O)*)c1; X19 = NC[C@@H](CC(=O)*)c1cccc(Br)c1; X4 = NC[C@@H](CC(=O)*)c1ccc(Cl)cc1; X7 = NC[C@H](CC(=O)*)c1cccc(Cl)c1; dNle = CCCC[C@@H](N)C(=O)O; Dab = NCC[C@H](N)C(=O)O; Abu = CC[C@H](N)C(=O)O; Dap = NC[C@H](N)C(=O)O
# Experiments:
# K. pneumoniae CA64 = type: cell-based
# Protocol: (§1) The inoculum was prepared by making a direct suspension of isolated colonies (selected from an 18-24 hour Mueller-Hinton agar plate) adjusted to the 0.5 McFarland standard. […] The assays were performed in duplicate. […] Several of the compounds were subjected to multiple tests, and where this is the case, the MIC presented is the median value obtained. The MIC values are quoted in μg/mL.
# P. aeruginosa CCUG 59347 = type: cell-based
# Protocol: as §1
# E. coli CA58 = type: cell-based
# Protocol: as §1
# [1] = Kidney drug level after subcutaneous dose in mouse; type: in vivo
# Protocol: Four hours after dosing the animals were euthanised and kidneys removed, trimmed of fat and connective tissue, weighed and immediately snap-frozen. After thawing at room temperature, pairs of kidneys from each animal were placed in 2 mL conical tubes containing pre-weighed ceria-stabilised zirconium oxide beads. […] After 10 min. centrifugation at 13,000 rpm and 6° C., 200 μl of the supernatants were transferred into glass inserts and analysed by LC-MS-MS.
# HK-2 cells = test: In vitro renal cell toxicity assay (HK-2); type: cell-based
# Protocol: The in vitro renal cell toxicity assay was performed according to the following protocol. […] Cells were seeded at 7,500 cells per well in 96-well plates and allowed to adhere overnight. […] Water and DMSO levels were kept constant at 5% and 0.5% respectively. The test compounds were incubated with cells for 24 h at 37° C. 5% CO2 in a humidified atmosphere. […] Media only background values were subtracted before the data was analysed using GraphPad Prism. Individual values were normalised to the vehicle control wells for each compound. Compound concentration values were plotted as log values to enable a dose-response curve to be fitted. The bottom of the curve was constrained to zero and IC50 values were determined. IC50 values are expressed relative to that for PMB in the same experiment. Where multiple determinations have been made, median values are presented.
# [2] = tested on: A. baumannii ATCC BAA-747; type: cell-based
# Protocol: (§2) The inoculum was prepared by making a direct suspension of isolated colonies (selected from an 18-24 hour Mueller-Hinton agar plate) adjusted to the 0.5 McFarland standard. […] The assays were performed in duplicate. […] The MIC values are quoted in μg/mL.
# P. aeruginosa ATCC 27853 = type: cell-based
# Protocol: as §2
# A. baumannii NCTC 13424 = type: cell-based
# Protocol: as §2
# K. pneumoniae ATCC 13822 = type: cell-based
# Protocol: as §2
# E. coli ATCC 25922 = type: cell-based
# Protocol: as §2
# [3] = cation-adjusted Mueller-Hinton Broth, 18-20 h, 35° C.
# [4] = mouse, in vivo, mice, 17.2 mg/kg free base sc, 4 h, read-out: 4 hr kidney level
# [5] = IC50 relative to PMB in the same experiment, 24 h
Structure (SMILES),MIC K. pneumoniae CA64 (K. pneumoniae CA64; CA64) [µg/mL],MIC P. aeruginosa CCUG 59347 (P. aeruginosa CCUG 59347; CCUG 59347) [µg/mL],MIC E. coli CA58 (E. coli CA58; CA58) [µg/mL],HK-2 rel to PMB (HK-2 cells),MIC A. baumannii ATCC BAA-747 ([2]; ATCC BAA-747) [µg/mL],MIC P. aeruginosa ATCC 27853 (P. aeruginosa ATCC 27853; ATCC 27853) [µg/mL],MIC A. baumannii NCTC 13424 (A. baumannii NCTC 13424; NCTC 13424) [µg/mL],MIC K. pneumoniae CA64 (K. pneumoniae CA64; [3]) [µg/mL],MIC P. aeruginosa CCUG 59347 (P. aeruginosa CCUG 59347; [3]) [µg/mL],MIC E. coli CA58 (E. coli CA58; [3]) [µg/mL],MIC K. pneumoniae ATCC 13822 (K. pneumoniae ATCC 13822; [3]) [µg/mL],MIC E. coli ATCC 25922 (E. coli ATCC 25922; [3]) [µg/mL],MIC P. aeruginosa ATCC 27853 (P. aeruginosa ATCC 27853; [3]) [µg/mL],other results
"CC(C)C[C@@H]1NC(=O)[C@@H](Cc2ccccc2)NC(=O)[C@H](CCN)NC(=O)[C@@H](NC(=O)[C@H](CN)NC(=O)[C@@H](NC(=O)C[C@H](CN)c2ccc(Cl)cc2)[C@@H](C)O)CCNC(=O)[C@H]([C@@H](C)O)NC(=O)[C@H](CCN)NC(=O)[C@H](CCN)NC1=O [Example 1, (S)-4-amino-3-(4- chlorophenyl) butanoyl- Thr- Dap-Cyclo[Dab- Dab-DPhe-Leu-Dab- Dab-Thr]] (X4-T[Dap][Dab][Dab][dF]L[Dab][Dab]T; lactam 3-C)",8,0.25,4,8.8,0.06,0.06,0.06,,,,,,,"4 hr kidney level/rel. cytotoxicity ([1]; mouse, in vivo): 30; Drug Level in Kidney (μg/g kidney, 4 h) ([1]; mouse, in vivo, sc, 17.2 mg/kg): 268 μg/g kidney; tissue level at time at 4 h ([1]; mouse, in vivo, sc, 17.2 mg/kg): 267000 ng/g"
"CC(C)C[C@@H]1NC(=O)[C@@H](Cc2ccccc2)NC(=O)[C@H](CCN)NC(=O)[C@@H](NC(=O)[C@H](CN)NC(=O)[C@@H](NC(=O)C[C@@H](CN)c2cccc(Cl)c2)[C@@H](C)O)CCNC(=O)[C@H]([C@@H](C)O)NC(=O)[C@H](CCN)NC(=O)[C@H](CCN)NC1=O [Example 6, (R)-4-amino-3-(3- chlorophenyl) butanoyl- Thr-Dap-Cyclo[Dab- Dab-DPhe-Leu-Dab- Dab-Thr]] (X7-T[Dap][Dab][Dab][dF]L[Dab][Dab]T; lactam 3-C)",8,0.5,8,7.8,0.5,,0.5,,,,,,,"4 hr kidney level/rel. cytotoxicity ([1]; mouse, in vivo): 49"
"CC(C)C[C@@H]1NC(=O)[C@@H](Cc2ccccc2)NC(=O)[C@H](CCN)NC(=O)[C@@H](NC(=O)[C@H](CN)NC(=O)[C@@H](NC(=O)C[C@@H](CN)Cc2ccccc2)[C@@H](C)O)CCNC(=O)[C@H]([C@@H](C)O)NC(=O)[C@H](CCN)NC(=O)[C@H](CCN)NC1=O [Example 10, (S)-4-amino-3- benzylbutanoyl-Thr- Dap-Cyclo[Dab-Dab- DPhe-Leu-Dab-Dab- Thr]. Isomer 2] ({GABA(3S-Bn)}-T[Dap][Dab][Dab][dF]L[Dab][Dab]T; lactam 3-C)",,,,,,,,16,0.25,8,0.5,,,"Drug level in kidney ([1]; mouse, 17.2 mg/kg sc, 4 hours): 346 µg/g; tissue level at time at 4 h [1, 4]: 346000 ng/g; 4 hr kidney level/rel. cytotoxicity ([1]; ratio of 4 h kidney level to HK-2 IC50 relative to PMB): 43; HK-2 rel to PMB (HK-2 cells; [5]): 8; MIC A. baumannii ATCC BAA-747 [2, 3]: 0.25 µg/mL; MIC A. baumannii NCTC 13424 (A. baumannii NCTC 13424; [3]): 0.25 µg/mL"
"CC(C)C[C@@H]1NC(=O)[C@@H](CC(C)C)NC(=O)[C@H](CCN)NC(=O)[C@@H](NC(=O)[C@H](CN)NC(=O)[C@@H](NC(=O)C[C@H](CN)c2cccc(C(C)C)c2)[C@@H](C)O)CCNC(=O)[C@H]([C@@H](C)O)NC(=O)[C@H](CCN)NC(=O)[C@H](CCN)NC1=O [Example 15, (S)-4-amino-3-(3- isopropylphenyl) butanoyl-Thr-Dap- Cyclo[Dab-Dab-DLeu- Leu-Dab-Dab-Thr]] (X3-T[Dap][Dab][Dab][dL]L[Dab][Dab]T; lactam 3-C)",16,0.5,4,52.1,0.06,0.25,0.06,,,,,,,"tissue level at time at 4 h ([1]; mouse, in vivo, sc, 17.2 mg/kg): 443000 ng/g"
CC[C@@H]1NC(=O)[C@@H](Cc2ccccc2)NC(=O)[C@H](CCN)NC(=O)[C@@H](NC(=O)[C@H](CN)NC(=O)[C@@H](NC(=O)C[C@@H](CN)c2cccc(C(C)C)c2)[C@@H](C)O)CCNC(=O)[C@H]([C@@H](C)O)NC(=O)[C@H](CCN)NC(=O)[C@H](CCN)NC1=O [Example 18] (X9-T[Dap][Dab][Dab][dF][Abu][Dab][Dab]T; lactam 3-C),,,,,,,,8,0.25,16,0.25,0.25,0.25,"tissue level at time at 4 h [1, 4]: 535000 ng/g; HK-2 rel to PMB (HK-2 cells; [5]): 32.8"
"CC[C@@H]1NC(=O)[C@@H](CC(C)C)NC(=O)[C@H](CCN)NC(=O)[C@@H](NC(=O)[C@H](CN)NC(=O)[C@@H](NC(=O)C[C@@H](CN)c2cccc(CC(C)C)c2)[C@@H](C)O)CCNC(=O)[C@H]([C@@H](C)O)NC(=O)[C@H](CCN)NC(=O)[C@H](CCN)NC1=O [Example 27, (R)-4-amino-3-(3- isobutylphenyl)butanoyl- Thr- Dap- Cyclo[Dab-Dab-DLeu- Abu-Dab-Dab-Thr]] (X22-T[Dap][Dab][Dab][dL][Abu][Dab][Dab]T; lactam 3-C)",2,0.5,16,,,0.5,,,,,,,,MIC E. coli ATCC 25922 (E. coli ATCC 25922; ATCC 25922): 0.25 µg/mL; MIC K. pneumoniae ATCC 13822 (K. pneumoniae ATCC 13822; ATCC 13822): 0.25 µg/mL
"CCCC[C@H]1NC(=O)[C@H](CCN)NC(=O)[C@@H](NC(=O)[C@H](CN)NC(=O)[C@@H](NC(=O)C[C@@H](CN)c2cc(Cl)cc(Cl)c2)[C@@H](C)O)CCNC(=O)[C@H]([C@@H](C)O)NC(=O)[C@H](CCN)NC(=O)[C@H](CCN)NC(=O)[C@H](CC)NC1=O [Example 29, (R)-4-amino-3-(3,5- dichlorophenyl)butanoyl- Thr-Dap- Cyclo[Dab-Dab- DnorLeu-Abu-Dab- Dab-Thr]] (X21-T[Dap][Dab][Dab][dNle][Abu][Dab][Dab]T; lactam 3-C)",,,,,,,,8,0.5,16,0.25,0.25,0.25,
"CC[C@@H]1NC(=O)[C@@H](CC(C)C)NC(=O)[C@H](CCN)NC(=O)[C@@H](NC(=O)[C@H](CN)NC(=O)[C@@H](NC(=O)C[C@H](CN)c2cccc(Br)c2)[C@@H](C)O)CCNC(=O)[C@H]([C@@H](C)O)NC(=O)[C@H](CCN)NC(=O)[C@H](CCN)NC1=O [Example 32, (S)-4-amino-3-(3- bromophenyl)butanoyl- Thr-Dap-Cyclo[Dab- Dab-DLeu-Abu-Dab- Dab-Thr]] (X19-T[Dap][Dab][Dab][dL][Abu][Dab][Dab]T; lactam 3-C)",,,,,,,,32,0.5,32,0.5,0.25,0.5,
